Tests used:
Format in all cases: in vivo
Lucilia cuprina = Lucilia cuprina test; details: application rate 100 ppm, L1 larvae, after 2 days
Experimental: Lucilia cuprina Test Solvent: dimethyl sulfoxide To produce a suitable active ingredient formulation, 10 mg of active ingredient are mixed with 0.5 ml of dimethyl sulfoxide, and the concentrate is diluted with water to the desired concentration. About 20 L1 larvae of the Australian sheep blowfly (Lucilia cuprina) are transferred into a test vessel containing minced horsemeat and the active ingredient formulation of the desired concentration. After 2 days, the kill in % is determined. 100% means that all the larvae have been killed; 0% means that no larvae have been killed.

Musca domestica = Musca domestica test; details: adult houseflies, after 2 days
Experimental: Musca domestica Test Solvent: dimethyl sulfoxide To produce a suitable active ingredient formulation, 10 mg of active ingredient are mixed with 0.5 ml of dimethyl sulfoxide, and the concentrate is diluted with water to the desired concentration. Vessels containing a sponge treated with sugar solution and the active ingredient formulation of the desired concentration are populated with 10 adult houseflies (Musca domestica). After 2 days, the kill in % is determined. 100% means that all of the flies have been killed; 0% means that none of the flies have been killed.

Phaedon cochleariae = Phaedon cochleariae spray test; details: foliar, 168 h, application rate 100 g/ha, spray on Chinese cabbage leaf discs, larvae, after 7 days, read-out: efficacy in %
Experimental: Phaedon cochleariae—Spray Test
(§1) To produce a suitable active ingredient formulation, 1 part by weight of active ingredient is dissolved with the specified parts by weight of solvent and made up to the desired concentration with water containing an emulsifier concentration of 1000 ppm. To produce further test concentrations, the formulation is diluted with emulsifier-containing water.
Discs of Chinese cabbage leaves (Brassica pekinensis) are sprayed with an active ingredient formulation of the desired concentration and, after drying, populated with larvae of the mustard beetle (Phaedon cochleariae).
After 7 days, the efficacy in % is determined. 100% means that all the beetle larvae have been killed; 0% means that no beetle larvae have been killed.

Ctenocephalides felis [1] = assay: Ctenocephalides felis oral test; details: application rate 100 ppm in citrated cattle blood, adult cat fleas, after 2 days
Experimental: Ctenocephalides felis—Oral Test Solvent: dimethyl sulfoxide To produce a suitable active ingredient formulation, 10 mg of active ingredient are mixed with 0.5 ml of dimethyl sulfoxide. Dilution with citrated cattle blood gives the desired concentration. About 20 unfed adult cat fleas (Ctenocephalides felis) are placed into a chamber which is closed at the top and bottom with gauze. A metal cylinder whose bottom end is closed with parafilm is placed onto the chamber. The cylinder contains the blood/active ingredient formulation, which can be imbibed by the fleas through the parafilm membrane. After 2 days, the kill in % is determined. 100% means that all of the fleas have been killed; 0% means that none of the fleas have been killed.

Myzus persicae [2] = assay: Myzus persicae oral test; details: 120 h, after 5 days, read-out: efficacy in %; for pest or weed control at 4 ppm: application rate 4 ppm; for pest or weed control at 20 ppm: application rate 20 ppm; for pest or weed control at 0.8 ppm: application rate 0.8 ppm
Experimental: Myzus persicae—Oral Test [table] To produce a suitable active ingredient formulation, 1 part by weight of active ingredient is dissolved with the stated parts by weight of solvent and made up to the desired concentration with water. 50 μl of the active ingredient formulationare transferred into microtitre plates and made up to a final volume of 200 μl with 150 μl of IPL41 insect medium (33% +15% sugar). Subsequently, the plates are sealed with parafilm, which a mixed population of green peach aphids (Myzus persicae) within a second microtitre plate is able to puncture and imbibe the solution. After 5 days, the efficacy in % is determined. 100% means that all the aphids have been killed; 0% means that no aphids have been killed.

Ctenocephalides felis [3] = assay: Ctenocephalides felis in vitro contact test with adult cat fleas; details: application rate 5 μg/cm^2 (=500 g/ha), after 48 h
Experimental: Ctenocephalides felis—In Vitro Contact Tests with Adult Cat Fleas For the coating of the test tubes, 9 mg of active ingredient are first dissolved in 1 ml of acetone p.a. and then diluted to the desired concentration with acetone p.a. 250 μl of the solution are distributed homogeneously on the inner walls and the base of a 25 ml glass tube by turning and rocking on an orbital shaker (rocking rotation at 30 rpm for 2 h). With 900 ppm of active ingredient solution and internal surface area 44.7 cm^2, given homogeneous distribution, an area-based dose of 5 μg/cm^2 is achieved. After the solvent has evaporated off, the tubes are populated with 5-10 adult cat fleas (Ctenocephalides felis), sealed with a perforated plastic lid and incubated in a horizontal position at room temperature and ambient humidity. After 48 h, efficacy is determined. To this end, the tubes are stood upright and the fleas are knocked to the base of the tube. Fleas which remain motionless at the base or move in an uncoordinated manner are considered to be dead or moribund. […] 100% efficacy means that all the fleas were dead or moribund. 0% efficacy means that no fleas were harmed.

Tetranychus urticae = Tetranychus urticae spray test, OP-resistant; details: spray on bean leaf discs, all stages, after 6 days
Experimental: Tetranychus urticae—Spray Test, OP-Resistant
as §1
Discs of bean leaves (Phaseolus vulgaris) infested with all stages of the greenhouse red spider mite (Tetranychus urticae) are sprayed with an active ingredient formulation of the desired concentration.
After 6 days, the efficacy in % is determined. 100% means that all the spider mites have been killed; 0% means that no spider mites have been killed.

Myzus persicae [4] = assay: Myzus persicae spray test; details: foliar, 120 h, application rate 100 g/ha, spray on Chinese cabbage leaf discs, after 5 days, read-out: efficacy in %
Experimental: Myzus persicae—Spray Test [table] To produce a suitable active ingredient formulation, 1 part by weight of active ingredient is dissolved with the specified parts by weight of solvent and made up to the desired concentration with water containing an emulsifier concentration of 1000 ppm. To produce further test concentrations, the formulation is diluted with emulsifier-containing water. Discs of Chinese cabbage leaves (Brassica pekinensis) infested by all stages of the green peach aphid (Myzus persicae) are sprayed with an active ingredient formulation of the desired concentration. After 5 days, the efficacy in % is determined. 100% means that all the aphids have been killed; 0% means that no aphids have been killed.

Spodoptera frugiperda = Spodoptera frugiperda spray test; details: application rate 100 g/ha, spray on maize leaf discs, caterpillars, after 7 days
Experimental: Spodoptera frugiperda—Spray Test [table] To produce a suitable active ingredient formulation, 1 part by weight of active ingredient is dissolved with the specified parts by weight of solvent and made up to the desired concentration with water containing an emulsifier concentration of 1000 ppm. To produce further test concentrations, the formulation is diluted with emulsifier-containing water. Leaf discs of maize (Zea mays) are sprayed with an active ingredient formulation of the desired concentration and, after drying, populated with caterpillars of the armyworm (Spodoptera frugiperda). After 7 days, the efficacy in % is determined. 100% means that all the caterpillars have been killed; 0% means that no caterpillar has been killed.

Rhipicephalus sanguineus = Rhipicephalus sanguineus in vitro contact test with adult brown dog ticks; details: application rate 5 μg/cm^2 (=500 g/ha), after 48 h
Experimental: Rhipicephalus sanguineus—In Vitro Contact Test with Adult Brown Dog Ticks For the coating of the test tubes, 9 mg of active ingredient are first dissolved in 1 ml of acetone p.a. and then diluted to the desired concentration with acetone p.a. 250 µl of the solution are distributed homogeneously on the inner walls and the base of a 25 ml glass tube by turning and rocking on an orbital shaker (rocking rotation at 30 rpm for 2 h). With 900 ppm of active ingredient solution and internal surface area 44.7 cm^2, given homogeneous distribution, an area-based dose of 5 μg/cm^2 is achieved. After the solvent has evaporated off, the tubes are populated with 5-10 adult dog ticks (Rhipicephalus sanguineus), sealed with a perforated plastic lid and incubated in a horizontal position in darkness at room temperature and ambient humidity. After 48 h, efficacy is determined. To this end, the ticks are knocked to the base of the tube and incubated on a hotplate at 45-50° C. for a maximum 5 min. Ticks which remain motionless at the base or move in such an uncoordinated manner that they cannot attempt to escape from the heat by climbing upward are considered to be dead or moribund. […] 100% efficacy means that all the ticks were dead or moribund. 0% efficacy means that no ticks were harmed.

Structure (SMILES) | efficacy (kill in %) (Lucilia cuprina) | efficacy (kill in %) (Musca domestica; application rate 20 ppm) | efficacy (kill in %) (Musca domestica; application rate 100 ppm) | pest or weed control at 100 g/ha (Phaedon cochleariae) | efficacy (kill in %) (Ctenocephalides felis [1]) | pest or weed control at 4 ppm (Myzus persicae [2]) | pest or weed control at 20 ppm (Myzus persicae [2]) | efficacy (fleas dead or moribund) (Ctenocephalides felis [3]) | efficacy in % (Tetranychus urticae; application rate 100 g/ha) | pest or weed control at 100 g/ha (Myzus persicae [4]) | efficacy in % (Spodoptera frugiperda) | pest or weed control at 0.8 ppm (Myzus persicae [2]) | efficacy (ticks dead or moribund) (Rhipicephalus sanguineus) | efficacy in % (Tetranychus urticae; application rate 20 g/ha)
CCSc1c(-c2nc3cc(C(F)(F)F)cnc3n2C)nc(C2CC2)n1C [Example I-1, 2-[2-Cyclopropyl-5-(ethylsulfanyl)-1-methyl-1H-imidazol-4-yl]-3-methyl-6-(trifluoromethyl)-3H-imidazo[4,5-b]pyridine] | 100% | 100% | 100% | 100% | 90% | 100% | 100% | 100% | 100% | – | – | – | – | –
CCS(=O)(=O)c1c(-c2nc3cc(C(F)(F)F)cnc3n2C)nc(C2CC2)n1C [Example I-2, 2-[2-Cyclopropyl-5-(ethylsulfonyl)-1-methyl-1H-imidazol-4-yl]-3-methyl-6-(trifluoromethyl)-3H-imidazo[4,5-b]pyridine] | 100% | 90% | 80% | 100% | 100% | 100% | 100% | 100% | – | 90% | 100% | 100% | 100% | 90%
CCS(=O)(=O)c1c(-c2nc3cc(OC(F)(F)F)cnc3n2C)nc(C2CC2)n1C [Example I-6] | – | – | – | 100% | – | 100% | – | – | 90% | 100% | 100% | 100% | – | –
CCS(=O)(=O)c1c(-c2nc3cc([S+]([O-])C(F)(F)F)cnc3n2C)nc(C2CC2)n1C (stereo not shown) [Example I-7] | 100% | 80% | – | 100% | 100% | – | – | – | – | 90% | 100% | 100% | – | –
CCS(=O)(=O)c1c(-c2nc3cc(S(=O)(=O)C(F)(F)F)cnc3n2C)nc(C2CC2)n1C [Example I-8] | 100% | 80% | – | 100% | 100% | 100% | – | – | – | – | 100% | 100% | – | –
CCS(=O)(=O)c1c(-c2nc3cc(C(F)(F)F)ncc3n2C)nc(C2CC2)n1C [Example I-9] | – | – | – | 100% | – | 100% | – | – | – | – | – | 100% | – | –
CCn1c(C2CC2)nc(-c2nc3cc(C(F)(F)F)ncc3n2C)c1S(=O)(=O)CC [Example I-10] | – | – | – | 100% | – | 100% | – | – | – | – | 83% | 100% | – | –
CCS(=O)(=O)c1c(-c2nc3cc(C(F)(F)F)ncc3n2C)nc(C2CC2)n1C(C)C [Example I-11] | 100% | – | – | 100% | 90% | 100% | – | – | – | 90% | – | 100% | – | –
CCS(=O)(=O)c1c(-c2nc3cc(SC(F)(F)F)cnc3n2C)nc(C2CC2)n1C [Example I-12] | – | – | – | 100% | – | 100% | – | – | – | 100% | 83% | 100% | – | –
CCS(=O)(=O)c1c(-c2nc3cc(C(F)(F)F)ncc3n2C)nc(C2CCCCC2)n1C [Example I-13, 2-[2-Cyclohexyl-5-(ethylsulfonyl)-1-methyl-1H-imidazol-4-yl]-3-methyl-6-(trifluoromethyl)-3H-imidazo[4,5-c]pyridine] | – | – | – | – | – | 100% | – | – | – | – | – | – | – | –
CCS(=O)(=O)c1c(-c2nc3cc(C(F)(F)F)ncc3n2C)nc([C@H]2CC[C@@H](C(F)(F)F)CC2)n1C [Example I-15] | – | – | – | 100% | – | 100% | – | – | – | 90% | – | 90% | – | –
CCS(=O)(=O)c1c(-c2nc3cc(C(F)(F)F)ncc3n2C)nc([C@H]2CC[C@@H](C)CC2)n1C [Example I-16] | – | – | – | – | – | 90% | – | – | 90% | 90% | – | 90% | – | –
CCS(=O)(=O)c1c(-c2nc3cc(C(F)(F)F)nnc3n2C)nc(C2CC2)n1C [Example I-17] | – | – | – | 100% | – | 100% | – | – | – | 90% | – | 100% | – | –
